In patent publication US5232923A, “Catechol derivatives and pharmaceutical preparations containing same” (Mitsui Toatsu Chemicals, Incorporated, priority 1988, dated 1993):
Where two headings read alike, the source gives them in different places.

Tests used:
[1] = tested on: production and secretion of NGF in mouse L-M cells; test: Promoting activity for the production and secretion of NGF in mouse L-M cells (ELISA of medium after 24 h); type: cell-based; conditions: for fold induction at 200 µM: Mus musculus, 24 h, read-out: NGF Increase Ratio; for NGF Concentration: 24 hours, mean of four determinations
Method: Promoting activity for the production and secretion of NGF in mouse L-M cells
The medium was cultured for 3 days at a temperature of 37° C. […] The sample of the derivative tested is contained in the medium at a prescribed concentration as illustrated in the Tables. […] Data are expressed as fold increase in NGF content of the medium over that cultivated in the absence of the derivative to be tested. […] Data are presented as the mean of four determinations. The results are illustrated in Tables 1-5.

[2] = tested on: production and secretion of NGF in mouse brain astroglial cells; test: Promoting activity for the production and secretion of NGF in mouse brain astroglial cells (ELISA of medium after 24 h); type: cell-based; conditions: for fold induction at 400 µM / fold induction at 200 µM: Mus musculus, 24 h, read-out: NGF Increase Ratio; for NGF Concentration: 24 hours
Method: Promoting activity for the production and secretion of NGF in mouse brain astroglial cells
The experiment was performed by inducing astroglial cells from the mouse forebrain to a culture system according to the procedures of S. Furukawa et al. which is described in Biochem. Biophys. Res. Commun., 136, 57-63 (1986).
Forebrains of 8-days old mice were dissected out and cut into small pieces. The pieces were washed with calcium- and magnesium-free phosphate-bufferedsaline (hereinafter abbreviated as PBS), treated with 0.25% trypsin containing PBS at 37° C. for 30 minutes and triturated with a Pasteur pipet to give a suspension. Cells and cell clumps were recovered by centrifugation at 200 xg for 5 minutes. They were cultured in Dulbecco modified Eagle's medium (a product of Gibco Co. hereinafter abbreviated as DMEM) containing 10% fetal calf serum, 50 μ units/ml of penicillin, and 50 μg/ml of streptomycin, for 10 to 14 days with medium changes every 3 days. After completing confluency, the cells were dissociated by trypsin treatment and recultured in new culture flasks. This procedure was repeated further twice and more. The culture became a uniform cell cluster. The cell cluster for use in this invention can be stained not less than 97% in accordance with the PAP staining method (peroxidase/[…] staining method) using anti-human glial fibrillar acidic protein (GFAP) rabbit antiserum. The cells will hereinafter be referred to as astroglial cells.
Astroglial cells were innoculated in 24-well plates having a well surface area of 2.1 cm^2 (a product of Falcon Co.) at a cell density of about 3×10^4 cells/well and cultured for 3 days in DMEM medium supplemented with 10% of fetal calf serum. After completing confluency about ([…]), the medium was changed to DMEM medium (0.5 ml/well) supplemented with 0.5% of bovine serum albumin (fraction V) and cultured for 3 days. The culture was further continued with medium changes every 3 days. After cells were practically synchronized in the quiscent stage, the medium was changed to 0.5 ml of the same medium and containing a prescribed concentration of test sample as illustrated in the Tables. NGF in the medium after cultivating for 24 hours was determined by the ELISA as mentioned above. Data are expressed as fold increase in NGF content over that in the absence of the test sample. The lower detection limit of the ELISA is 0.25 pg/ml and the NGF content of control medium was normally 1-10 pg/0.5 ml/well. Data are presented as the mean of four determinations. The results are illustrated in Tables 1-5.

[3] = Table 1, L-M cells, sample concentration 0.2 mM, fold increase over control (1.00)
[4] = Table 1, L-M cells, sample concentration 0.2 mM, control 0.33
[5] = Table 3, sample concentration 0.4 mM, fold increase over control (1.00)
[6] = Table 3, sample concentration 0.4 mM, control 42.3
[7] = Table 3, sample concentration 0.2 mM, fold increase over control (1.00)
[8] = Table 3, sample concentration 0.2 mM, control 42.3
[9] = Table 2, L-M cells, sample concentration 0.2 mM, fold increase over control (1.00)
[10] = Table 2, L-M cells, sample concentration 0.2 mM, control 0.34
[11] = Table 4, sample concentration 0.2 mM, fold increase over control
[12] = Table 4, sample concentration 0.2 mM

| SMILES | fold induction at 200 µM [1, 3] | NGF Concentration [1, 4] | fold induction at 400 µM [2, 5] | NGF Concentration [2, 6] | fold induction at 200 µM [2, 7] | NGF Concentration [2, 8] | fold induction at 200 µM [1] | fold induction at 200 µM [1, 9] | NGF Concentration [1, 10] | fold induction at 200 µM [2, 11] | NGF Concentration [2, 12] |
| --- | --- | --- | --- | --- | --- | --- | --- | --- | --- | --- | --- |
| CC(=O)NCCc1ccc(O)c(O)c1 [Compound 1, N-Acetyl-3,4-dihydroxyphenethylamine] | 9.24 | 3.05 ng/well | 4.94 | 208.8 ng/well | – | – | – | – | – | – | – |
| CCCC(=O)NCCc1ccc(O)c(O)c1 [Compound 3] | 9.64 | 3.18 ng/well | – | – | 3.66 | 155.0 ng/well | – | – | – | – | – |
| CC(=O)NCCCc1ccc(O)c(O)c1 [Compound 7] | 8.52 | 2.81 ng/well | 4.46 | 188.5 ng/well | – | – | – | – | – | – | – |
| CC(=O)N(C)CCc1ccc(O)c(O)c1 [Compound 10] | 9.7 | 3.20 ng/well | 4.85 | 205.2 ng/well | – | – | – | – | – | – | – |
| CCCC(=O)N(C)CCc1ccc(O)c(O)c1 [Compound 12] | 9.15 | 3.02 ng/well | 4.89 | 206.7 ng/well | – | – | – | – | – | – | – |
| CC(=O)NCCc1ccc(OC(C)=O)c(OC(C)=O)c1 [Compound 13, N-Acetyl-3,4-diacetoxyphenethylamine] | 12.2 | 4.03 ng/well | 4.7 | 198.8 ng/well | – | – | – | – | – | – | – |
| CCCC(=O)NCCc1ccc(OC(C)=O)c(OC(C)=O)c1 [Compound 15] | 8.94 | 2.95 ng/well | – | – | 3.74 | 158.2 ng/well | – | – | – | – | – |
| CC(=O)NCCCc1ccc(OC(C)=O)c(OC(C)=O)c1 [Compound 17] | 8.64 | 2.85 ng/well | – | – | 4.27 | 180.6 ng/well | – | – | – | – | – |
| Br.CCNCCc1ccc(O)c(O)c1 [Compound 19, N-Ethyl-3,4-dihydroxyphenethylamine hydrobromide] | – | 3.50 ng/well | 4.17 | 176.3 ng/well | – | – | 10.6 | – | – | – | – |
| CCCCNCCc1ccc(O)c(O)c1 [Compound 21] | – | 3.80 ng/well | 4.91 | 207.5 ng/well | – | – | 11.5 | – | – | – | – |
| CNCCCc1ccc(O)c(O)c1 [Compound 26] | 8.61 | 2.84 ng/well | 4.17 | 176.5 ng/well | – | – | – | – | – | – | – |
| CCCCNCCCc1ccc(O)c(O)c1 [Compound 29] | 8.73 | 2.88 ng/well | 4.26 | 180.3 ng/well | – | – | – | – | – | – | – |
| CCOC(=O)CCc1ccc(O)c(O)c1 [Compound 35] | – | – | – | – | – | – | – | 5.82 | 1.98 ng/well | 4.63 | 200.1 ng/well |
| CCCCOC(=O)CCc1ccc(O)c(O)c1 [Compound 37] | – | – | – | – | – | – | – | 5.44 | 1.85 ng/well | 4.83 | 208.5 ng/well |
| CCOC(=O)Cc1ccc(O)c(O)c1 [Compound 39] | – | – | – | – | – | – | – | 5.24 | 1.78 ng/well | 4.86 | 210.1 ng/well |
| CCOC(=O)CCCc1ccc(O)c(O)c1 [Compound 43] | – | – | – | – | – | – | – | 5.53 | 1.88 ng/well | 4.59 | 198.5 ng/well |
